From publication PMC6800282, “Make the right measurement: Discovery of an allosteric inhibition site for p300-HAT” (Structural Dynamics, 2019)
Values joined by “and” are separate entries in the source; they are usually repeats but may differ in a detail not shown here. Identical values can stand only once.

Assays:
[1] = biological target: CBP HAT (Homo sapiens, UniProt Q92793); experiment: CBP HAT SPA; type: biochemical
[2] = biological target: T1, full-length human p300 (FL-P300) (Homo sapiens, UniProt Q09472); experiment: Full-length p300 SPA; type: biochemical; settings: for Inhibition of FL enzyme: full-length P300
T1 construct: polyhistidine tag with TEV site (HisTev) (N); StrepII (C); made in house; host or cells: Sf9 insect cells (baculovirus)
From the text: The sequence of 2414-residue full-length human p300 (FL-P300) was codon-optimized for insect cell expression and synthesized in three parts (Genscript). After assembly of the full-length sequence, the complete ORF was subcloned into a modified pTriEx vector (Novagen/EMD Millipore) to express FL-P300 with both an N-terminal, cleavable polyhistidine tag and C-terminal StrepII tag (HisTev-p300-Strep). Baculovirus was produced by co-transfection of the plasmid into Sf9 cells with linearized baculovirus BestBac2.0 (Expression Systems). The protein was expressed in Sf9 cells and purified with Talon Metal Affinity Resin (Clontech/Takara). The purified protein was concentrated to 1.6 mg/ml in storage buffer (50 mM Tris pH 8, 100 mM NaCl, 10% glycerol, and 0.5 mM TCEP).
At this point in the program, quantities of highly purified FL P300 were more readily available (preparation described above), and so HAT inhibitors were retested against FL P300 under optimized conditions. A large shift relative to the P300-HAT catalytic domain assay was observed.

[3] = biological target: T2, P300-HAT domain (Homo sapiens, UniProt Q09472); experiment: Dynamic scanning fluorimetry (DSF); type: binding; settings: for ΔTm at 250 µM: compound at 250 μM
T2 sequence (Q09472 1287-1666): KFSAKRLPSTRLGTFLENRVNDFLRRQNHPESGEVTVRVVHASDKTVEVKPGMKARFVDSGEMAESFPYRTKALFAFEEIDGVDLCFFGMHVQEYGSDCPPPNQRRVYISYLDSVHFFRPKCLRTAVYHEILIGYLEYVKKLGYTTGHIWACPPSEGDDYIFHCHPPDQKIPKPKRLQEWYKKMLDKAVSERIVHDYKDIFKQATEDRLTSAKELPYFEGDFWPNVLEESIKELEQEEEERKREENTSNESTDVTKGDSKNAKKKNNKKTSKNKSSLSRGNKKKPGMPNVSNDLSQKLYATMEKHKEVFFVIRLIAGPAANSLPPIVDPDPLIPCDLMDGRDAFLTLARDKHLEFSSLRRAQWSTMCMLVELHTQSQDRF
From the text: Additionally, given their small size, it seemed unlikely that CPI-076 and CPI-090 blocked both sites.

[4] = biological target: T3, WT P300 HAT domain (Homo sapiens, UniProt Q09472); experiment: p300 HAT domain SPA catalytic assay with peptide substrate; type: biochemical; settings: for Mechanism of inhibition (excess substrate MOI tests): 10× AcCoA, 30× histone peptide; for IC50: HAT domain construct K1287-F1666
T3 construct: WT HAT construct = K1287-F1666 including the L1520-L1580 regulatory loop, expressed as HisTev fusion; HisTev (polyhistidine tag with TEV site); made in house
T3 sequence (Q09472 1287-1666): T2 sequence (Q09472 1287-1666)
Method: To identify starting points for modulating p300/CBP activity, high throughput screening was carried out using the WT P300 HAT domain (WT HAT construct = K1287-F1666 including the L1520-L1580 regulatory loop, expressed as HisTev fusion) and a peptide substrate in a catalytic assay. After extensive triage, several validated inhibitor types were identified, one of which will be the focus of this report. A more detailed description of the HTS efforts will be the subject of a forthcoming publication by Huhn et al. At this stage of the project, only the HAT domain of p300 was used, as it was not yet feasible to obtain sufficient quantities of full-length P300 (FL-P300) to conduct a high-throughput screen of >150,000 compounds.

[5] = tested on: H3K18 acetylation in HCT116 cells; experiment: Inhibition of H3K18 acetylation in HCT116 cells; type: cell-based; settings: Homo sapiens, HCT-116, read-out: H3K18Ac EC50
[6] = full-length enzyme, optimized conditions

T1 sequence (Q09472 whole entry): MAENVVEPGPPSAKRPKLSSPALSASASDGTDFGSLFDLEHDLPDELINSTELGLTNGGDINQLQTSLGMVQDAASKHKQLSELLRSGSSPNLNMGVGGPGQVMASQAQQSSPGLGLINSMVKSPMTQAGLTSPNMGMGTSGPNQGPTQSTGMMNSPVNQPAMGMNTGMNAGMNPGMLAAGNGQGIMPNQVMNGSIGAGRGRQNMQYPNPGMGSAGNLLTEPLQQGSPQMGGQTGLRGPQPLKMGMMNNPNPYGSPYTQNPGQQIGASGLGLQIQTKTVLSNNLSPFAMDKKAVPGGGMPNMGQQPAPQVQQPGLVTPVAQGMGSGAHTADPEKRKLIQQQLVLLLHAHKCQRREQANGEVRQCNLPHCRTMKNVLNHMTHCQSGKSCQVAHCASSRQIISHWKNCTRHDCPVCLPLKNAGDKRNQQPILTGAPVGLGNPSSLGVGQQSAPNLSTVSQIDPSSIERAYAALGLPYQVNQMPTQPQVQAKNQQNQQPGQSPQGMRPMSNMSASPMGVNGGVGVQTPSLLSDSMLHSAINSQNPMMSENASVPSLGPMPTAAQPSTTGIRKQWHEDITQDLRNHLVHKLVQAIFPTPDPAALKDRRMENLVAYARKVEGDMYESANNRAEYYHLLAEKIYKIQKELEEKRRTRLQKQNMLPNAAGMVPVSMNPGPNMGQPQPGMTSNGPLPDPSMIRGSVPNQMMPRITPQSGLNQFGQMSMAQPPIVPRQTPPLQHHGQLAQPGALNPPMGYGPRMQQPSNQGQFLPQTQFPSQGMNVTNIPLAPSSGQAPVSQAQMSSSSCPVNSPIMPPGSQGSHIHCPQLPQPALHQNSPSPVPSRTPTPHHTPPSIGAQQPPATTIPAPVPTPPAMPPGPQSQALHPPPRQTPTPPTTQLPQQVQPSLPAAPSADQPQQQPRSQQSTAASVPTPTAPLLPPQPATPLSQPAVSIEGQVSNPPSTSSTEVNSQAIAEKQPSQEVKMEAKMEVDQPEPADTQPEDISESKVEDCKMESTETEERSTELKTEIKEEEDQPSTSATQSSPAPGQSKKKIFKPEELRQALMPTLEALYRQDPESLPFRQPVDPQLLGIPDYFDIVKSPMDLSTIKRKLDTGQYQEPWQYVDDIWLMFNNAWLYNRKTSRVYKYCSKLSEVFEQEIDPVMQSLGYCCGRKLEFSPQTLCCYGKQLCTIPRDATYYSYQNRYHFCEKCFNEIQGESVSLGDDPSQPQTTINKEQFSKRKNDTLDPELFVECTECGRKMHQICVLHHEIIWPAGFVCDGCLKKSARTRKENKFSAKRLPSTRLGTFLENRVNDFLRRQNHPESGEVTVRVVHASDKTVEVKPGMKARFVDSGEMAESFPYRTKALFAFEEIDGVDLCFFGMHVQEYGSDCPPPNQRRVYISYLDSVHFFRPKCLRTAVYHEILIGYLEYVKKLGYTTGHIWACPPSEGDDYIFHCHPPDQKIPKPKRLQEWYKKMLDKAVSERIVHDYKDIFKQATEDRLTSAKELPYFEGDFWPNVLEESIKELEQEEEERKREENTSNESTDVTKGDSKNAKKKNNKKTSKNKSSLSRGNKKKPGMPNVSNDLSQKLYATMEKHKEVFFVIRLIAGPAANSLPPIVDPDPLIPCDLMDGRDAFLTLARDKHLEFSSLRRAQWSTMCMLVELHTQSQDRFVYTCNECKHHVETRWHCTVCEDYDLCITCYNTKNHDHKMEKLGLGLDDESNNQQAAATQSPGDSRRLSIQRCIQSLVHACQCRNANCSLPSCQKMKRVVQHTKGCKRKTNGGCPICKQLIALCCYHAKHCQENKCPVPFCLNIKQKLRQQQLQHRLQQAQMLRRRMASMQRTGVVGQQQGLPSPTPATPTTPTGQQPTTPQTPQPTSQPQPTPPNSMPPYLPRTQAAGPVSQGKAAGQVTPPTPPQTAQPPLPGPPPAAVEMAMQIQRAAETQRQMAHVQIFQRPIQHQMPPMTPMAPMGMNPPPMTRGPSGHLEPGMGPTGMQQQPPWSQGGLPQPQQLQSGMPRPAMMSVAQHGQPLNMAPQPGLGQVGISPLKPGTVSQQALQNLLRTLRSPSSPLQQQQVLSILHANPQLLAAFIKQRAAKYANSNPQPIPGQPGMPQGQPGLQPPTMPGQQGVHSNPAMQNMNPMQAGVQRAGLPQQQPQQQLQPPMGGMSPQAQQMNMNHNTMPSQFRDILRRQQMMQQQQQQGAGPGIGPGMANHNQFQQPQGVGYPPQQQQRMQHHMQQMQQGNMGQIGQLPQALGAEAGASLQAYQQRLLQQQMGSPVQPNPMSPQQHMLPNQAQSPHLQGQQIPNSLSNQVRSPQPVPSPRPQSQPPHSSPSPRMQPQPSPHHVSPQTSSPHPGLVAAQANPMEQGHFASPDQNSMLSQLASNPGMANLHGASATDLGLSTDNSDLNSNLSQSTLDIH
CBP HAT, sequence (Q92793 1323-1700 limits assumed): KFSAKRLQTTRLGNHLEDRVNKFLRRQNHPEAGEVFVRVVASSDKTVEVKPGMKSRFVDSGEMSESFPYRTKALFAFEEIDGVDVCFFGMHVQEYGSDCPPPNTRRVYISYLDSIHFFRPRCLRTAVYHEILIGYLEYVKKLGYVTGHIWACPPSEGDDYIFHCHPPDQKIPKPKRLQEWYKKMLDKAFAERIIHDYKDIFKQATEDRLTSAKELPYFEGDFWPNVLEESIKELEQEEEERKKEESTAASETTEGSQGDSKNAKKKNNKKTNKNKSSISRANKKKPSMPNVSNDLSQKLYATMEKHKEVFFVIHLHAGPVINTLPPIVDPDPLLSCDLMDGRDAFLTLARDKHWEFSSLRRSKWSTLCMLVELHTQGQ

Structure (SMILES)	IC50 [1]	Inhibition of FL enzyme [2]	FL p300 SPA IC50 [2, 6]	ΔTm at 250 µM [3]	Mechanism of inhibition (excess substrate MOI tests) [4]	IC50 [4]	EC50 [5]	IC50 [2, 6]	DSF stabilization [3]
CC(=O)Nc1cccs1 [CPI-076]	39 µM	no measurable FL activity	Undetectable	1.3 °C	AcCoA- and peptide-modulating compounds but not wholly competitive	20 µM			
Cc1[nH]c2ccccc2c1-c1ncc(C(F)(F)F)cc1Cl [CPI-090]	0.74 µM	does not inhibit the FL enzyme		5.8 °C	AcCoA- and peptide-modulating compounds but not wholly competitive	0.318 µM and 0.31 µM	> 30 µM	> 160 µM	strong stabilization
